pIC50: −log10 of the molar value.
Each compound was assayed against T1, Glucose-induced degradation protein 4 homolog (Homo sapiens) (UniProt Q8IVV7). Settings: not given.
T1 sequence (whole entry): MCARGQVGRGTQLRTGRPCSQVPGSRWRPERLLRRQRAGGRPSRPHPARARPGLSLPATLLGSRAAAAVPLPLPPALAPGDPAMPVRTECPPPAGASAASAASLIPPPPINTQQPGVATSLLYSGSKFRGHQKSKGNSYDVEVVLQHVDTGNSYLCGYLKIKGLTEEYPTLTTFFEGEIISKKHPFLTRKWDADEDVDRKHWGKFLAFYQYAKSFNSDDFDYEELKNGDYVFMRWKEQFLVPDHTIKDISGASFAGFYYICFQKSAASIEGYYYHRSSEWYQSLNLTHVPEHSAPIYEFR

Point of comparison: `COc1cccc2c1CCNC2c1ccccc1` (configuration not stated), ΔTm 4.4 °C. Against it:
- CC(=O)Oc1ccc(C2NCCc3sccc32)cc1 (configuration not stated) — lower, 3.3 °C
- Nc1ccc(C2NCCc3sccc32)cc1 (configuration not stated) — higher, 7.1 °C
- NCc1ccccc1Oc1ccccc1 — not separable, > 1 °C
- CCOc1ccc(NC2=NCC(C)S2)cc1 (configuration not stated) — lower, 0.8 °C
- COc1ccc(C2NCCc3sccc32)cc1 (racemic) — higher, 4.5 °C
- COc1ccc(NC2=NCC(C)S2)cc1 (configuration not stated) — lower, 3.1 °C
- Brc1ccc(C2NCCc3sccc32)cc1 (configuration not stated) — lower, 4.2 °C
- N#Cc1cccc(C2NCCc3sccc32)c1 (configuration not stated) — lower, 3.9 °C
- CC(=O)c1ccc(NC2=NCC(C)S2)cc1 (configuration not stated) — lower, -0.1 °C
- C[C@H](N)c1ccc(Cl)cc1 — not separable, > 1 °C
- Nc1ccccc1C1NCCc2sccc21 (configuration not stated) — lower, 2.8 °C
- O=C(O)c1ccc(-c2ccc(Cl)cc2)o1 — not separable, > 1 °C
- CC1CN=C(Nc2ccc(F)cc2F)S1 (configuration not stated) — lower, 0.7 °C
- c1ccc(C2NCCc3sccc32)cc1 (configuration not stated) — higher, 7.9 °C
- Oc1cccc(C2NCCc3sccc32)c1 (configuration not stated) — higher, 6.1 °C
- Clc1ccc(C2NCCc3sccc32)cc1 (configuration not stated) — higher, 5.1 °C
- CNC(=O)[C@H](CC1CCCCC1)NC(=O)[C@@H](NC(=O)[C@H]1NC[C@@H]1c1ccccc1)c1ccsc1 — higher, 4.5 °C
- OCc1ccc(C2NCCc3sccc32)cc1 (configuration not stated) — the same, 4.4 °C
- O=[N+]([O-])c1ccccc1C1NCCc2sccc21 (configuration not stated) — lower, 4.1 °C
- c1cncc(C2NCCc3sccc32)c1 (configuration not stated) — lower, 2.5 °C
- CNC(=O)C1c2ccccc2CN1C(=O)[C@@H](Cc1c(C)[nH]c2ccccc12)NC(=O)CNCCOc1ccc(C)cc1 (some centres not stated) — lower, 0.1 °C
- CNC(=O)[C@H](CCc1ccccc1)NC(=O)[C@H](NC(=O)CNCc1ccc(OC)cc1OC)c1cccs1 — higher, 16 °C
- c1ccc(NC2=NCCS2)cc1 — lower, 2.5 °C
- CC1SC(Nc2ccc(F)cc2)=NC1=O (configuration not stated) — lower, 0.6 °C
- FC(F)(F)c1ccc(C2NCCc3sccc32)cc1 (configuration not stated) — lower, 2.7 °C
- CC1(C)CN=C(Nc2ccc(F)cc2)S1 — lower, 1.2 °C
- c1cc2c(s1)CCNC2 — lower, 1.9 °C
- CC1CN=C(Nc2ccc(N(C)C)cc2)S1 (configuration not stated) — lower, 3.1 °C
- CC1CSC(Nc2cccc3ccccc23)=N1 (configuration not stated) — lower, 2.5 °C
- COc1cccc(C2NCCc3sccc32)c1 (configuration not stated) — higher, 7.6 °C
- Clc1ccc(CNCc2cccnc2)cc1 — not separable, > 1 °C
- Fc1ccc(C2NCCc3sccc32)cc1 (configuration not stated) — lower, 3.8 °C
- CC1CN=C(Nc2ccc(F)cc2)S1 (racemic) — lower, 3.2 °C
- CC(=O)c1cccc(NC2=NCC(C)S2)c1 (configuration not stated) — lower, 3.2 °C
- N#Cc1ccc(C2NCCc3sccc32)cc1 (configuration not stated) — lower, 2 °C
- FC(F)(F)c1ccccc1C1NCCc2sccc21 (configuration not stated) — higher, 5.3 °C
- Clc1ccccc1C1NCCc2sccc21 (configuration not stated) — higher, 5 °C
- COc1ccc2c(c1)CCCC2c1ccccc1 (configuration not stated) — higher, 6.4 °C
- O=[N+]([O-])c1cccc(C2NCCc3sccc32)c1 (configuration not stated) — higher, 4.9 °C

What follows are compounds tested against T2, Glucose-induced degradation protein 4 homolog (Homo sapiens, UniProt Q8IVV7) (assay: Inhibition of GID4 (124 to 289) (unknown origin) expressed in Escherichia coli BL21(DE3) using PGLWKS-FITC peptide by competitive-fluorescence polarization binding assay). Settings: not given.
T2 sequence (Q8IVV7 whole entry): T1 sequence (whole entry)

`CC1CN=C(Nc2cccc(F)c2)S1` (configuration not stated) was tested, and the pIC50 was 3.58.

The compounds below were run against T1, Glucose-induced degradation protein 4 homolog (Homo sapiens). Settings: HEK293, dose 50.0 µM, time 10.0 min.

`CNC(=O)[C@H](CCc1ccccc1)NC(=O)[C@H](NC(=O)CNCc1ccc(OC)cc1OC)c1cccs1` was tested, and the ΔTm was 3.8 °C.

Reference: ChEMBL document CHEMBL5104179, “Discovery and Structural Characterization of Small Molecule Binders of the Human CTLH E3 Ligase Subunit GID4” (J Med Chem, 2022)
